Measured values: US9957263B2, “Bromodomain inhibitors” (AbbVie Inc., priority 2013, dated 2018)

Experiments:
[1] = biological target: BRD4 (BDII_E352-M457) (Homo sapiens (Human), UniProt O60885); assay: TR-FRET bromodomain binding assay, BRD4 second bromodomain; details: His-tagged BD2, Alexa647-labeled probe 30 nM
Method: (§1) A time-resolved fluorescence resonance energy transfer (TR-FRET) assay was used to determine the affinities of compounds of the Examples listed in Table 1 for each bromodomain of BRD4. His-tagged first (BD1: amino acids K57-E168) and second (BD2: amino acids E352-E168) bromodomains of BRD4 were expressed and purified. An Alexa647-labeled BET-inhibitor was used as the fluorescent probe in the assay.
(§2) Compound dilution series were prepared in DMSO via a 3-fold serial dilution from 2.5 mM to 42 nM. Compounds were then diluted 6:100 in assay buffer (20 mM Sodium Phosphate, pH 6.0, 50 mM NaCl, 1 mM Ethylenediaminetetraacetic acid disodium salt dihydrate, 0.01% Triton X-100, 1 mM DL-Dithiothreitol) to yield 3× working solutions. Six microliters (μL) of the working solution was then transferred to white, low-volume assay plates (Costar #3673). A 1.5× assay mixture containing His-tagged bromodomain, Europium-conjugated anti-His antibody (Invitrogen PV5596) and the Alexa-647-conjugated probe molecule was also prepared. Twelve μL of this solution were added to the assay plate to reach a final volume of 18 μL. The final concentration of 1× assay buffer contains 2% DMSO, 50 μM-0.85 nM compound, 8 nM His-tagged bromodomain, 1 nM Europium-conjugated anti-His-tag antibody and 100 nM or 30 nM probe (for BDI or BDII, respectively). After a one-hour incubation at room temperature, TR-FRET ratios were determined using an Envision multilabel plate reader (Ex 340, Em […]).
(§3) TR-FRET data were normalized to the means of 24 no-compound controls (“high”) and 8 controls containing 1 μM un-labeled probe (“low”). Percent inhibition was plotted as a function of compound concentration and the data were fit with the 4 parameter logistic equation to obtain IC50s. Inhibition constants (Ki) were calculated from the IC50s, probe Kd and probe concentration. Typical Z′ values were between 0.65 and 0.75. The minimum significant ratio was determined to evaluate assay reproducibility (Eastwood et al., (2006) J Biomol Screen, 11: 253-261). The MSR was determined to be 2.03 for BDI and 1.93 for BDII, and a moving MSR (last six run MSR overtime) for both BDI and BDII was typically <3.

[2] = biological target: BRD4 (BDI_K57-E168) (Homo sapiens (Human), UniProt O60885); assay: TR-FRET bromodomain binding assay, BRD4 first bromodomain; details: His-tagged BD1, Alexa647-labeled probe 100 nM
Method: as §1, §2, §3

| SMILES | Ki [1] | Ki [2] |
| --- | --- | --- |
| Cc1cc(-c2ccc(-c3cn(C)c(=O)c4[nH]ccc34)c(OCC3CC3)c2)[nH]n1 [Example 1, 4-[2-(cyclopropylmethoxy)-4-(3-methyl-1H-pyrazol-5-yl)phenyl]-6-methyl-1,6-dihydro-7H-pyrrolo[2,3-c]pyridin-7-one] | 55 nM | 26 nM |
| CCS(=O)(=O)Nc1cc(-c2cn(C)c(=O)c3[nH]ccc23)c(Oc2ccc(F)cc2F)cc1CN1CCCCC1 [Example 3, N-[4-(2,4-difluorophenoxy)-5-(6-methyl-7-oxo-6,7-dihydro-1H-pyrrolo[2,3-c]pyridin-4-yl)-2-(piperidin-1-ylmethyl)phenyl]ethanesulfonamide] | 2.8 nM | 88 nM |
| CCS(=O)(=O)Nc1cc(-c2cn(C)c(=O)c3[nH]ccc23)c(Oc2ccc(F)cc2F)cc1CN1CCOCC1 [Example 4, N-[4-(2,4-difluorophenoxy)-5-(6-methyl-7-oxo-6,7-dihydro-1H-pyrrolo[2,3-c]pyridin-4-yl)-2-(morpholin-4-ylmethyl)phenyl]ethanesulfonamide] | 1.7 nM | 11 nM |
| CCS(=O)(=O)Nc1cc(-c2cn(C)c(=O)c3[nH]ccc23)c(Oc2ccc(F)cc2F)cc1CN1CCN(C)CC1 [Example 5, N-{4-(2,4-difluorophenoxy)-5-(6-methyl-7-oxo-6,7-dihydro-1H-pyrrolo[2,3-c]pyridin-4-yl)-2-[(4-methylpiperazin-1-yl)methyl]phenyl}ethanesulfonamide] | 1.7 nM | 16 nM |
| CCS(=O)(=O)Nc1cc(-c2cn(C)c(=O)c3[nH]ccc23)c(Oc2ccc(F)cc2F)cc1CO [Example 6, N-[4-(2,4-difluorophenoxy)-2-(hydroxymethyl)-5-(6-methyl-7-oxo-6,7-dihydro-1H-pyrrolo[2,3-c]pyridin-4-yl)phenyl]ethanesulfonamide] | 2 nM | 14 nM |
| CCS(=O)(=O)Nc1cc(-c2cn(C)c(=O)c3[nH]ccc23)c(Oc2ccc(F)cc2F)cc1CNC1CCCC1 [Example 7, N-{2-[(cyclopentylamino)methyl]-4-(2,4-difluorophenoxy)-5-(6-methyl-7-oxo-6,7-dihydro-1H-pyrrolo[2,3-c]pyridin-4-yl)phenyl}ethanesulfonamide] | 6.9 nM | 32 nM |
| CCS(=O)(=O)Nc1cc(-c2cn(C)c(=O)c3[nH]ccc23)c(Oc2ccc(F)cc2F)cc1C(N)=O [Example 8, 5-(2,4-difluorophenoxy)-2-[(ethylsulfonyl)amino]-4-(6-methyl-7-oxo-6,7-dihydro-1H-pyrrolo[2,3-c]pyridin-4-yl)benzamide] | 1.8 nM | 1.5 nM |
| CCS(=O)(=O)Nc1cc(-c2cn(C)c(=O)c3[nH]ccc23)c(Oc2ccc(F)cc2F)cc1C(=O)NC1CCCC1 [Example 9, N-cyclopentyl-5-(2,4-difluorophenoxy)-2-[(ethylsulfonyl)amino]-4-(6-methyl-7-oxo-6,7-dihydro-1H-pyrrolo[2,3-c]pyridin-4-yl)benzamide] | 2 nM | 1.7 nM |
| CCS(=O)(=O)Nc1cc(-c2cn(C)c(=O)c3[nH]ccc23)c(Oc2ccc(F)cc2F)cc1C(=O)N(C)C [Example 10, 5-(2,4-difluorophenoxy)-2-[(ethylsulfonyl)amino]-N,N-dimethyl-4-(6-methyl-7-oxo-6,7-dihydro-1H-pyrrolo[2,3-c]pyridin-4-yl)benzamide] | 8.3 nM | 72 nM |

The remaining lines, values ahead:

| Ki [1] | Ki [2] | SMILES |
| --- | --- | --- |
| 1 nM | 0.8 nM | CCS(=O)(=O)Nc1cc(-c2cn(C)c(=O)c3[nH]ccc23)c(Oc2ccc(F)cc2F)cc1C(=O)O [Example 11, 5-(2,4-difluorophenoxy)-2-[(ethylsulfonyl)amino]-4-(6-methyl-7-oxo-6,7-dihydro-1H-pyrrolo[2,3-c]pyridin-4-yl)benzoic acid] |
| 1.6 nM | 1.8 nM | CCS(=O)(=O)Nc1cc(-c2cn(C)c(=O)c3[nH]ccc23)c(Oc2ccc(F)cc2F)cc1C(=O)NC1CCOCC1 [Example 12, 5-(2,4-difluorophenoxy)-2-[(ethylsulfonyl)amino]-4-(6-methyl-7-oxo-6,7-dihydro-1H-pyrrolo[2,3-c]pyridin-4-yl)-N-(tetrahydro-2H-pyran-4-yl)benzamide] |
| 7.4 nM | 42 nM | CCS(=O)(=O)Nc1cc(-c2cn(C)c(=O)c3[nH]ccc23)c(Oc2ccc(F)cc2F)cc1CNCCO [Example 13, N-[4-(2,4-difluorophenoxy)-2-{[(2-hydroxyethyl)amino]methyl}-5-(6-methyl-7-oxo-6,7-dihydro-1H-pyrrolo[2,3-c]pyridin-4-yl)phenyl]ethanesulfonamide] |
| 14 nM | 71 nM | CCS(=O)(=O)Nc1cc(-c2cn(C)c(=O)c3[nH]ccc23)c(Oc2ccc(F)cc2F)cc1CN1CCCC1c1ccccc1 (centres unmarked) [Example 14, N-{4-(2,4-difluorophenoxy)-5-(6-methyl-7-oxo-6,7-dihydro-1H-pyrrolo[2,3-c]pyridin-4-yl)-2-[(2-phenylpyrrolidin-1-yl)methyl]phenyl}ethanesulfonamide] |
| 2.6 nM | 4.6 nM | CCS(=O)(=O)Nc1cc(-c2cn(C)c(=O)c3[nH]ccc23)c(Oc2ccc(F)cc2F)c(C2CC2)c1 [Example 15, N-[3-cyclopropyl-4-(2,4-difluorophenoxy)-5-(6-methyl-7-oxo-6,7-dihydro-1H-pyrrolo[2,3-c]pyridin-4-yl)phenyl]ethanesulfonamide] |
| 30 nM | 2.5 nM | CCS(=O)(=O)c1ccc(OCC2CC2(F)F)c(-c2cn(C)c(=O)c3[nH]c(CN4CCN(c5ccncc5)CC4)cc23)c1 (centres unmarked) [Example 16, 4-{2-[(2,2-difluorocyclopropyl)methoxy]-5-(ethylsulfonyl)phenyl}-6-methyl-2-{[4-(pyridin-4-yl)piperazin-1-yl]methyl}-1,6-dihydro-7H-pyrrolo[2,3-c]pyridin-7-one] |
| 60 nM | 4.4 nM | CCS(=O)(=O)c1ccc(OCC2CC2(F)F)c(-c2cn(C)c(=O)c3[nH]c(CN4CCN(c5nccs5)CC4)cc23)c1 (centres unmarked) [Example 17, 4-{2-[(2,2-difluorocyclopropyl)methoxy]-5-(ethylsulfonyl)phenyl}-6-methyl-2-{[4-(1,3-thiazol-2-yl)piperazin-1-yl]methyl}-1,6-dihydro-7H-pyrrolo[2,3-c]pyridin-7-one] |
| 48 nM | 4.4 nM | CCS(=O)(=O)c1ccc(OCC2CC2(F)F)c(-c2cn(C)c(=O)c3[nH]c(CN4CCN(c5cnccn5)CC4)cc23)c1 (centres unmarked) [Example 18, 4-{2-[(2,2-difluorocyclopropyl)methoxy]-5-(ethylsulfonyl)phenyl}-6-methyl-2-{[4-(pyrazin-2-yl)piperazin-1-yl]methyl}-1,6-dihydro-7H-pyrrolo[2,3-c]pyridin-7-one] |
| 48 nM | 4.9 nM | CCS(=O)(=O)c1ccc(OCC2CC2(F)F)c(-c2cn(C)c(=O)c3[nH]c(CN4CCN(c5cccnc5)CC4)cc23)c1 (centres unmarked) [Example 20, 4-{2-[(2,2-difluorocyclopropyl)methoxy]-5-(ethylsulfonyl)phenyl}-6-methyl-2-{[4-(pyridin-3-yl)piperazin-1-yl]methyl}-1,6-dihydro-7H-pyrrolo[2,3-c]pyridin-7-one] |
| 10 nM | 33 nM | Cn1cc(-c2cc(S(C)(=O)=O)ccc2Oc2cccc(C(=O)NC3CC3)c2)c2cc[nH]c2c1=O [Example 21, N-cyclopropyl-3-[2-(6-methyl-7-oxo-6,7-dihydro-1H-pyrrolo[2,3-c]pyridin-4-yl)-4-(methylsulfonyl)phenoxy]benzamide] |
| 12 nM | 15 nM | Cn1cc(-c2cc(S(C)(=O)=O)ccc2Oc2cccc(C(=O)N3CCC(N4CCCC4)CC3)c2)c2cc[nH]c2c1=O [Example 24, 6-methyl-4-[5-(methylsulfonyl)-2-(3-{[4-(pyrrolidin-1-yl)piperidin-1-yl]carbonyl}phenoxy)phenyl]-1,6-dihydro-7H-pyrrolo[2,3-c]pyridin-7-one] |
| 6.1 nM | 19 nM | Cn1cc(-c2cc(S(C)(=O)=O)ccc2Oc2cccc(C(=O)NC3CCCCC3)c2)c2cc[nH]c2c1=O [Example 25, N-cyclohexyl-3-[2-(6-methyl-7-oxo-6,7-dihydro-1H-pyrrolo[2,3-c]pyridin-4-yl)-4-(methylsulfonyl)phenoxy]benzamide] |
| 15 nM | 27 nM | Cn1cc(-c2cc(S(C)(=O)=O)ccc2Oc2cccc(C(=O)N3CCN(CCO)CC3)c2)c2cc[nH]c2c1=O [Example 26, 4-[2-(3-{[4-(2-hydroxyethyl)piperazin-1-yl]carbonyl}phenoxy)-5-(methylsulfonyl)phenyl]-6-methyl-1,6-dihydro-7H-pyrrolo[2,3-c]pyridin-7-one] |
